From PubChem BioAssay AID602338 (NMMLSC, 2012)
Active and inactive are the calls of the source. How the calls were made is not given here.

These compounds were tested against Botulinum neurotoxin type F (Clostridium botulinum) (UniProt P30996) (assay: Botulinum neurotoxin type F protease inhibition, microsphere cleavage flow cytometry, confirmatory dose response (AID 602338)). Conditions: multiplex microsphere protease cleavage assay.

| SMILES | EC50 |
| --- | --- |
| O=[N+]([O-])c1cccc(-c2cn3nc(-c4ccccc4)c(-c4ccccc4)nc3n2)c1 | > 20 µM (inactive) |
| COc1ccc(OC)c(-c2nc3cc4ccccc4cc3nc2-c2ccccc2)c1 | > 20 µM (inactive) |
| COc1ccc(C2CC(c3cccs3)=NN2c2nc(C)c(C(C)=O)s2)cc1OC (centres undefined) | > 20 µM (inactive) |
| Cn1c(=O)c(/C=C/c2ccccc2)nc2ccccc21 | > 20 µM (inactive) |
| O=C(Nc1ccc2nc(-c3cccs3)c(-c3cccs3)nc2c1)NC1CC1 | > 20 µM (inactive) |
| CS(=O)(=O)N1N=C(c2ccccc2)CC1c1ccc2c(c1)OCO2 (centres undefined) | > 20 µM (inactive) |
| c1ccc(-c2cn3nc(-c4ccccc4)c(-c4ccccc4)nc3n2)cc1 | > 20 µM (inactive) |
| CCS(=O)(=O)N1N=C(c2cccc(NS(C)(=O)=O)c2)CC1c1ccccc1 (centres undefined) | > 20 µM (inactive) |
| CCSc1nnc(-c2sc3nnc(-c4ccccc4)c(-c4ccccc4)c3c2N)o1 | > 20 µM (inactive) |
| O=C(Nc1ccc2nc(-c3cccs3)c(-c3cccs3)nc2c1)N1CCOCC1 | > 20 µM (inactive) |
| O=c1c(/C=C(\O)c2ccccc2)nc2ccccc2n1-c1ccccc1 | > 20 µM (inactive) |
| CSc1nnc2c(n1)c(C)nn2-c1cccc(C)c1 | > 20 µM (inactive) |
| Oc1[nH]c(N=C2N=c3ccccc3=N2)c2ccccc12 | > 20 µM (inactive) |
| CCOc1ccc2nc3cc(NCc4ccc(OC)cc4)ccc3c(N)c2c1 | > 20 µM (inactive) |
